From USRE42890E1, “Furazanobenzimidazoles” (Basilea Pharmaceutica AG, priority 2003, dated 2011)

System: Jurkat
Test: MTS proliferation assay, Jurkat
Format: cell-based, human
Conditions: 72 h incubation, read-out: MTS proliferation assay IC 50 Jurkat
Outline: (§1)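 Absorbance at 492 nm after 3 h with MTS reagent gave the proliferation read-out. Before that, cells in RPMI-1640 complete medium (5% or 10% FCS) were treated 72 h with compound at four final concentrations, 0.3 to 10 μM.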

SMILES | IC50 [nM]
Nc1nonc1-c1nc2ccccc2n1CC(=O)c1ccc(Cl)cc1Cl [Example 31] | 100 to 1000
COc1cccc(/C=C/C(=O)Cn2c(-c3nonc3N)nc3ccccc32)c1 [Example 120] | > 1000

Same assay, conditions: Homo sapiens, 72 h incubation, read-out: MTS proliferation assay IC 50 Jurkat

SMILES | IC50 [nM]
Nc1nonc1-c1nc2ccccc2n1CC(=O)/C=C/c1ccccc1 [Example 12, E-1-[2-(4-Aminofurazan-3-yl)-benzimidazol-1-yl]-4-phenyl-but-3-en-2-one] | 100 to 1000

System: Jily
Test: MTS proliferation assay, Jily
Format: cell-based
Conditions: 72 h incubation, read-out: MTS proliferation assay IC 50 Jily
Outline: (§2)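 Read-out: MTS absorbance at 492 nm after 3 h reagent incubation. Before that, cells grew 72 h at 37° C/7.5% CO2 with test compounds at final concentrations of 10 μM, 3 μM, 1 μM and 0.3 μM, added 24 h post-seeding.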

SMILES | IC50 [nM]
Nc1nonc1-c1nc2ccccc2n1CC(=O)c1ccc(Cl)cc1Cl [Example 31] | 100 to 1000
Nc1nonc1-c1nc2ccccc2n1CC(=O)/C=C/c1ccccc1 [Example 12, E-1-[2-(4-Aminofurazan-3-yl)-benzimidazol-1-yl]-4-phenyl-but-3-en-2-one] | 100 to 1000
COc1cccc(/C=C/C(=O)Cn2c(-c3nonc3N)nc3ccccc32)c1 [Example 120] | > 1000

System: adherent cells or suspension cells
Test: Hoechst 33342 nuclear staining (fraction of apoptotic nuclei)
Format: cell-based
Parameters: key: 0 relating to no activity; 1 relating to weak activity comprising less than 70% of the cells; score 2 relating to strong activity comprising more than 70% of the cells
Conditions: H460, conc 0.01 μm

SMILES | Hoechst 33342 nuclear staining score
Nc1nonc1-c1nc2ccccc2n1CC(=O)c1ccc(Cl)cc1Cl [Example 31] | 0
Nc1nonc1-c1nc2ccccc2n1CC(=O)/C=C/c1ccccc1 [Example 12, E-1-[2-(4-Aminofurazan-3-yl)-benzimidazol-1-yl]-4-phenyl-but-3-en-2-one] | 0
COc1cccc(/C=C/C(=O)Cn2c(-c3nonc3N)nc3ccccc32)c1 [Example 120] | 0

Same assay, conditions: H460, conc 0.1 μm

SMILES | Hoechst 33342 nuclear staining score
Nc1nonc1-c1nc2ccccc2n1CC(=O)c1ccc(Cl)cc1Cl [Example 31] | 0
Nc1nonc1-c1nc2ccccc2n1CC(=O)/C=C/c1ccccc1 [Example 12, E-1-[2-(4-Aminofurazan-3-yl)-benzimidazol-1-yl]-4-phenyl-but-3-en-2-one] | 0
COc1cccc(/C=C/C(=O)Cn2c(-c3nonc3N)nc3ccccc32)c1 [Example 120] | 0

Same assay, conditions: H460, conc 1 μm

SMILES | Hoechst 33342 nuclear staining score
Nc1nonc1-c1nc2ccccc2n1CC(=O)c1ccc(Cl)cc1Cl [Example 31] | 0
Nc1nonc1-c1nc2ccccc2n1CC(=O)/C=C/c1ccccc1 [Example 12, E-1-[2-(4-Aminofurazan-3-yl)-benzimidazol-1-yl]-4-phenyl-but-3-en-2-one] | 0
COc1cccc(/C=C/C(=O)Cn2c(-c3nonc3N)nc3ccccc32)c1 [Example 120] | 0

Same assay, conditions: HeLa, conc 0.01 μm

SMILES | Hoechst 33342 nuclear staining score
Nc1nonc1-c1nc2ccccc2n1CC(=O)c1ccc(Cl)cc1Cl [Example 31] | 0
Nc1nonc1-c1nc2ccccc2n1CC(=O)/C=C/c1ccccc1 [Example 12, E-1-[2-(4-Aminofurazan-3-yl)-benzimidazol-1-yl]-4-phenyl-but-3-en-2-one] | 0
COc1cccc(/C=C/C(=O)Cn2c(-c3nonc3N)nc3ccccc32)c1 [Example 120] | 0

Same assay, conditions: HeLa, conc 0.1 μm

SMILES | Hoechst 33342 nuclear staining score
Nc1nonc1-c1nc2ccccc2n1CC(=O)c1ccc(Cl)cc1Cl [Example 31] | 0
Nc1nonc1-c1nc2ccccc2n1CC(=O)/C=C/c1ccccc1 [Example 12, E-1-[2-(4-Aminofurazan-3-yl)-benzimidazol-1-yl]-4-phenyl-but-3-en-2-one] | 0
COc1cccc(/C=C/C(=O)Cn2c(-c3nonc3N)nc3ccccc32)c1 [Example 120] | 0

Same assay, conditions: HeLa, conc 1 μm

SMILES | Hoechst 33342 nuclear staining score
Nc1nonc1-c1nc2ccccc2n1CC(=O)c1ccc(Cl)cc1Cl [Example 31] | 0
Nc1nonc1-c1nc2ccccc2n1CC(=O)/C=C/c1ccccc1 [Example 12, E-1-[2-(4-Aminofurazan-3-yl)-benzimidazol-1-yl]-4-phenyl-but-3-en-2-one] | 0
COc1cccc(/C=C/C(=O)Cn2c(-c3nonc3N)nc3ccccc32)c1 [Example 120] | 0

Same assay, conditions: Jily, conc 0.01 μm

SMILES | Hoechst 33342 nuclear staining score
Nc1nonc1-c1nc2ccccc2n1CC(=O)/C=C/c1ccccc1 [Example 12, E-1-[2-(4-Aminofurazan-3-yl)-benzimidazol-1-yl]-4-phenyl-but-3-en-2-one] | 0
COc1cccc(/C=C/C(=O)Cn2c(-c3nonc3N)nc3ccccc32)c1 [Example 120] | 0

Same assay, conditions: Jily, conc 0.1 μm

SMILES | Hoechst 33342 nuclear staining score
Nc1nonc1-c1nc2ccccc2n1CC(=O)/C=C/c1ccccc1 [Example 12, E-1-[2-(4-Aminofurazan-3-yl)-benzimidazol-1-yl]-4-phenyl-but-3-en-2-one] | 0
COc1cccc(/C=C/C(=O)Cn2c(-c3nonc3N)nc3ccccc32)c1 [Example 120] | 0

Same assay, conditions: Jily, conc 1 μm

SMILES | Hoechst 33342 nuclear staining score
Nc1nonc1-c1nc2ccccc2n1CC(=O)/C=C/c1ccccc1 [Example 12, E-1-[2-(4-Aminofurazan-3-yl)-benzimidazol-1-yl]-4-phenyl-but-3-en-2-one] | 2 (score 2 relating to strong activity comprising more than 70% of the cells)
COc1cccc(/C=C/C(=O)Cn2c(-c3nonc3N)nc3ccccc32)c1 [Example 120] | 0

Same assay, conditions: Jurkat, conc 0.01 μm

SMILES | Hoechst 33342 nuclear staining score
Nc1nonc1-c1nc2ccccc2n1CC(=O)c1ccc(Cl)cc1Cl [Example 31] | 0
Nc1nonc1-c1nc2ccccc2n1CC(=O)/C=C/c1ccccc1 [Example 12, E-1-[2-(4-Aminofurazan-3-yl)-benzimidazol-1-yl]-4-phenyl-but-3-en-2-one] | 0
COc1cccc(/C=C/C(=O)Cn2c(-c3nonc3N)nc3ccccc32)c1 [Example 120] | 0

Same assay, conditions: Jurkat, conc 0.1 μm

SMILES | Hoechst 33342 nuclear staining score
Nc1nonc1-c1nc2ccccc2n1CC(=O)c1ccc(Cl)cc1Cl [Example 31] | 0
Nc1nonc1-c1nc2ccccc2n1CC(=O)/C=C/c1ccccc1 [Example 12, E-1-[2-(4-Aminofurazan-3-yl)-benzimidazol-1-yl]-4-phenyl-but-3-en-2-one] | 0
COc1cccc(/C=C/C(=O)Cn2c(-c3nonc3N)nc3ccccc32)c1 [Example 120] | 0

Same assay, conditions: Jurkat, conc 1 μm

SMILES | Hoechst 33342 nuclear staining score
Nc1nonc1-c1nc2ccccc2n1CC(=O)c1ccc(Cl)cc1Cl [Example 31] | 1 (1 relating to weak activity comprising less than 70% of the cells)
Nc1nonc1-c1nc2ccccc2n1CC(=O)/C=C/c1ccccc1 [Example 12, E-1-[2-(4-Aminofurazan-3-yl)-benzimidazol-1-yl]-4-phenyl-but-3-en-2-one] | 2 (score 2 relating to strong activity comprising more than 70% of the cells)
COc1cccc(/C=C/C(=O)Cn2c(-c3nonc3N)nc3ccccc32)c1 [Example 120] | 0

Same assay, conditions: MRC5, conc 0.01 μm

SMILES | Hoechst 33342 nuclear staining score
Nc1nonc1-c1nc2ccccc2n1CC(=O)c1ccc(Cl)cc1Cl [Example 31] | 0
Nc1nonc1-c1nc2ccccc2n1CC(=O)/C=C/c1ccccc1 [Example 12, E-1-[2-(4-Aminofurazan-3-yl)-benzimidazol-1-yl]-4-phenyl-but-3-en-2-one] | 0
COc1cccc(/C=C/C(=O)Cn2c(-c3nonc3N)nc3ccccc32)c1 [Example 120] | 0

Same assay, conditions: MRC5, conc 0.1 μm

SMILES | Hoechst 33342 nuclear staining score
Nc1nonc1-c1nc2ccccc2n1CC(=O)c1ccc(Cl)cc1Cl [Example 31] | 0
Nc1nonc1-c1nc2ccccc2n1CC(=O)/C=C/c1ccccc1 [Example 12, E-1-[2-(4-Aminofurazan-3-yl)-benzimidazol-1-yl]-4-phenyl-but-3-en-2-one] | 0
COc1cccc(/C=C/C(=O)Cn2c(-c3nonc3N)nc3ccccc32)c1 [Example 120] | 0

Same assay, conditions: MRC5, conc 1 μm

SMILES | Hoechst 33342 nuclear staining score
Nc1nonc1-c1nc2ccccc2n1CC(=O)c1ccc(Cl)cc1Cl [Example 31] | 0
Nc1nonc1-c1nc2ccccc2n1CC(=O)/C=C/c1ccccc1 [Example 12, E-1-[2-(4-Aminofurazan-3-yl)-benzimidazol-1-yl]-4-phenyl-but-3-en-2-one] | 0
COc1cccc(/C=C/C(=O)Cn2c(-c3nonc3N)nc3ccccc32)c1 [Example 120] | 0

Same assay, conditions: PBLs, conc 0.01 μm

SMILES | Hoechst 33342 nuclear staining score
Nc1nonc1-c1nc2ccccc2n1CC(=O)c1ccc(Cl)cc1Cl [Example 31] | 0
Nc1nonc1-c1nc2ccccc2n1CC(=O)/C=C/c1ccccc1 [Example 12, E-1-[2-(4-Aminofurazan-3-yl)-benzimidazol-1-yl]-4-phenyl-but-3-en-2-one] | 0
COc1cccc(/C=C/C(=O)Cn2c(-c3nonc3N)nc3ccccc32)c1 [Example 120] | 0

Same assay, conditions: PBLs, conc 0.1 μm

SMILES | Hoechst 33342 nuclear staining score
Nc1nonc1-c1nc2ccccc2n1CC(=O)c1ccc(Cl)cc1Cl [Example 31] | 0
Nc1nonc1-c1nc2ccccc2n1CC(=O)/C=C/c1ccccc1 [Example 12, E-1-[2-(4-Aminofurazan-3-yl)-benzimidazol-1-yl]-4-phenyl-but-3-en-2-one] | 0
COc1cccc(/C=C/C(=O)Cn2c(-c3nonc3N)nc3ccccc32)c1 [Example 120] | 0

Same assay, conditions: PBLs, conc 1 μm

SMILES | Hoechst 33342 nuclear staining score
Nc1nonc1-c1nc2ccccc2n1CC(=O)c1ccc(Cl)cc1Cl [Example 31] | 0
Nc1nonc1-c1nc2ccccc2n1CC(=O)/C=C/c1ccccc1 [Example 12, E-1-[2-(4-Aminofurazan-3-yl)-benzimidazol-1-yl]-4-phenyl-but-3-en-2-one] | 0
COc1cccc(/C=C/C(=O)Cn2c(-c3nonc3N)nc3ccccc32)c1 [Example 120] | 0

System: HeLa
Test: MTS proliferation assay, HeLa
Format: cell-based, human
Conditions: 72 h incubation, read-out: MTS proliferation assay IC 50 HeLa
Outline: as §1

SMILES | IC50 [nM]
Nc1nonc1-c1nc2ccccc2n1CC(=O)c1ccc(Cl)cc1Cl [Example 31] | 100 to 1000
COc1cccc(/C=C/C(=O)Cn2c(-c3nonc3N)nc3ccccc32)c1 [Example 120] | > 1000

Same assay, conditions: Homo sapiens, 72 h incubation, read-out: MTS proliferation assay IC 50 HeLa

SMILES | IC50 [nM]
Nc1nonc1-c1nc2ccccc2n1CC(=O)/C=C/c1ccccc1 [Example 12, E-1-[2-(4-Aminofurazan-3-yl)-benzimidazol-1-yl]-4-phenyl-but-3-en-2-one] | > 1000

System: HT1080
Test: MTS proliferation assay, HT1080
Format: cell-based, human
Conditions: HT1080, 72 h incubation; read-out: MTS proliferation assay IC 50 HT1080
Outline: as §1

SMILES | IC50 [nM]
Nc1nonc1-c1nc2ccccc2n1CC(=O)c1ccc(Cl)cc1Cl [Example 31] | > 1000
COc1cccc(/C=C/C(=O)Cn2c(-c3nonc3N)nc3ccccc32)c1 [Example 120] | > 1000

Same assay, conditions: Homo sapiens, HT-1080; HT1080, 72 h incubation; read-out: MTS proliferation assay IC 50 HT1080

SMILES | IC50 [nM]
Nc1nonc1-c1nc2ccccc2n1CC(=O)/C=C/c1ccccc1 [Example 12, E-1-[2-(4-Aminofurazan-3-yl)-benzimidazol-1-yl]-4-phenyl-but-3-en-2-one] | > 1000

System: MRC5
Test: MTS proliferation assay, MRC5
Format: cell-based
Conditions: Homo sapiens; MRC5, 72 h incubation; read-out: MTS proliferation assay IC 50 MRC5
Outline: as §2

SMILES | IC50 [nM]
Nc1nonc1-c1nc2ccccc2n1CC(=O)/C=C/c1ccccc1 [Example 12, E-1-[2-(4-Aminofurazan-3-yl)-benzimidazol-1-yl]-4-phenyl-but-3-en-2-one] | > 1000

Same assay, conditions: MRC5, 72 h incubation; read-out: MTS proliferation assay IC 50 MRC5

SMILES | IC50 [nM]
Nc1nonc1-c1nc2ccccc2n1CC(=O)c1ccc(Cl)cc1Cl [Example 31] | 100 to 1000
COc1cccc(/C=C/C(=O)Cn2c(-c3nonc3N)nc3ccccc32)c1 [Example 120] | > 1000
